The assay addresses phosphorylated active hERK2 enzyme (Homo sapiens, UniProt P28482). As to the kind of experiment: Active human ERK2 (hERK2) Activity Assay (IMAP-FP). Format: biochemical. The following applies: 10 point titration, 3 μM starting concentration, 0.5 nM hERK2, 30 μM ATP, 60 minutes reaction.
Chain of phosphorylated active hERK2 enzyme (P28482 whole entry): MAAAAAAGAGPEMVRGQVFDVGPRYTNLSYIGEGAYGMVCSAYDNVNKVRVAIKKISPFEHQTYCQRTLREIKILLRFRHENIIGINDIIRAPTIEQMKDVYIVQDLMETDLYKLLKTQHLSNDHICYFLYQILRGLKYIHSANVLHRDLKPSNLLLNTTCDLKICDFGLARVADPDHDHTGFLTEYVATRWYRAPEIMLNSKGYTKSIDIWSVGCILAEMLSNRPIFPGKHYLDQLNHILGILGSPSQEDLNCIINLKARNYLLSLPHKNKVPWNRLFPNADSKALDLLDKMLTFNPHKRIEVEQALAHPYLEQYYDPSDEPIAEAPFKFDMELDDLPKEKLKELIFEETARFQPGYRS
Method: Activated ERK2 activity was determined in an IMAP-FP assay (Molecular Devices). Using this assay format, the potency (IC50) of each compound was determined from a 10 point (1:3 serial dilution, 3 μM starting compound concentration) titration curve using the following outlined procedure. […] Following a 15 minute compound & enzyme incubation, each reaction was initiated by the addition of 10 μL kinase buffer containing 2.45 μM ERK2 IMAP substrate peptides and 75 μM ATP. The final reaction in each well of 25 μL consists of 0.5 nM hERK2, 900 nM unlabeled peptide, 80 nM labeled-peptide, and 30 μM ATP. Phosphorylation reactions were allowed to proceed for 60 minutes and were immediately quenched by the addition of 60 μL IMAP detection beads (1:1000 dilutions) in IMAP binding buffer (Molecular Devices) with 24 mM NaCl. Plates were read on EnVision reader after 60 minutes binding equilibration using Fluorescence Polarization protocol (Perkin Elmer).
Consider `Cn1ncc2cc3nc(c21)CNCCCC(c1ccccc1)NC(=O)N3` (stereo not shown) [Example 31, 1-Methyl-9-phenyl-1,6,9,10,11,12,13,14-octahydro-5,15-(azeno)pyrazolo[3,4-k][1,3,8]triazacyclotetradecin-7(8H)-one], for which the IC50 is 832 nM.
In turn, `Cn1ncc2cc3nc(c21)COCCCC(c1ccccc1)NC(=O)N3` (stereo not shown) [Example 32, 1-Methyl-9-phenyl-1,6,9,10,11,12-hexahydro-5,15-(azeno)pyrazolo[4,3-k][1,6,8]oxadiazacyclotetradecin-7(8H,14H)-one] showed an IC50 of 50.9 nM. Compared with the last compound, the IC50 is about 16-fold lower.
To `CN1CCCC(c2ccccc2)NC(=O)Nc2cc3cnn(C)c3c(n2)C1` (stereo not shown) [Example 33, 1,13-Dimethyl-9-phenyl-1,6,9,10,11,12,13,14-octahydro-5,15-(azeno)pyrazolo[3,4-k][1,3,8]triazacyclotetradecin-7(8H)-one] belongs 276 nM; to `Cn1ncc2cc3nc(c21)Cn1cc(nn1)CC(c1ccccc1)NC(=O)N3` (stereo not shown) [Example 34, 1-methyl-9-phenyl-1,6,9,10-tetrahydro-5,16-(azeno)-14,11-(metheno)pyrazolo[4,3-l][1,2,3,7,9]pentaazacyclopentadecin-7(8H,15H)-one], 89.9 nM; to `Cn1ncc2cc3nc(c21)Cn1cc(nn1)C[C@H](c1ccccc1)NC(=O)N3` [Example 35, (9R)-1-Methyl-9-phenyl-1,6,9,10-tetrahydro-5,16-(azeno)-14,11-(metheno)pyrazolo[4,3-l][1,2,3,7,9]pentaazacyclopentadecin-7(8H,15H)-one], 69.4 nM.
To `COCCn1ncc2cc3nc(c21)Cn1cc(nn1)CC(c1ccccc1)NC(=O)N3` (stereo not shown) [Example 36, 1-(2-Methoxyethyl)-9-phenyl-1,6,9,10-tetrahydro-5,16-(azeno)-14,11-(metheno)pyrazolo[4,3-l][1,2,3,7,9]pentaazacyclopentadecin-7(8H,15H)-one] belongs 416 nM.
`COCCCn1ncc2cc3nc(c21)Cn1cc(nn1)CC(c1ccccc1)NC(=O)N3` (stereo not shown) [Example 37, 1-(3-Methoxypropyl)-9-phenyl-1,6,9,10-tetrahydro-5,16-(azeno)-14,11-(metheno)pyrazolo[4,3-l][1,2,3,7,9]pentaazacyclopentadecin-7(8H,15H)-one] registered an IC50 of 241 nM.
The compound `Cc1c2nnn1Cc1nc(cc3cnn(C)c13)NC(=O)NC(c1ccccc1)C2` (stereo not shown) [Example 40, 1,18-Dimethyl-9-phenyl-1,6,9,10-tetrahydro-5,16-(azeno)-14,11-(metheno)pyrazolo[4,3-l][1,2,3,7,9]pentaazacyclopentadecin-7(8H,15H)-one] yielded an IC50 of 1950 nM.
In the case of `CCn1ncc2cc3nc(c21)/C=C\COC(C)(C)[C@H](c1ccccc1)NC(=O)N3` [Example 41, (9S,13Z)-1-Ethyl-10,10-dimethyl-9-phenyl-1,6,9,10-tetrahydro-12H-5,15-(azeno)pyrazolo [4,3-i][1,4,6]oxadiazacyclotetradecin-7(8H)-one], it took 634 nM to reach half-maximal inhibition (IC50).
Next, `CCn1ncc2cc3nc(c21)/C=C\COC(C)(C)[C@@H](c1ccccc1)NC(=O)N3` [Example 42, (9R,13Z)-1-Ethyl-10,10-dimethyl-9-phenyl-1,6,9,10-tetrahydro-12H-5,15-(azeno)pyrazolo [4,3-i][1,4,6]oxadiazacyclotetradecin-7(8H)-one]: 230 nM; `CCn1ncc2cc3nc(c21)CC(=O)COC[C@H](c1ccccc1)NC(=O)N3` [Example 43, (9 S)-1-Ethyl-9-phenyl-1,6,9,10-tetrahydro-12H-5,15-(azeno)pyrazolo [4,3-i][1,4,6]oxadiazacyclotetradecine-7,13(8H,14H)-dione]: 11.2 nM; `CCn1ncc2cc3nc(c21)CCCO[C@H]([C@@H](C)O)[C@H](c1ccccc1)NC(=O)N3` [Example 45, (9 S,10 S)-1-Ethyl-10-[(1R)-1-hydroxyethyl]-9-phenyl-1,6,9,10,13,14-hexahydro-12H-5,15-(azeno)pyrazolo[4,3-i][1,4,6]oxadiazacyclotetradecin-7(8H)-one]: 287 nM.
On to `CCn1ncc2cc3nc(c21)CCCO[C@H]([C@H](C)O)[C@H](c1ccccc1)NC(=O)N3` [Example 46, (9 S,10 S)-1-Ethyl-10-[(1 S)-1-hydroxyethyl]-9-phenyl-1,6,9,10,13,14-hexahydro-12H-5,15-(azeno)pyrazolo[4,3-i][1,4,6]oxadiazacyclotetradecin-7(8H)-one], for which the IC50 was determined as 48.4 nM.
Next, `CCn1ncc2cc3nc(c21)CCCO[C@@H]([C@@H](C)O)[C@@H](c1ccccc1)NC(=O)N3` [Example 47, (9R,10R)-1-Ethyl-10-[(1R)-1-hydroxyethyl]-9-phenyl-1,6,9,10,13,14-hexahydro-12H-5,15-(azeno)pyrazolo[4,3-i][1,4,6]oxadiazacyclotetradecin-7(8H)-one]: 687 nM; `CCn1ncc2cc3nc(c21)CCCO[C@@H]([C@H](C)O)[C@@H](c1ccccc1)NC(=O)N3` [Example 48, (9R,10R)-1-Ethyl-10-[(1S)-1-hydroxyethyl]-9-phenyl-1,6,9,10,13,14-hexahydro-12H-5,15-(azeno)pyrazolo[4,3-i][1,4,6]oxadiazacyclotetradecin-7(8H)-one]: 4.11 nM; `CCn1ncc2cc3nc(c21)C[C@@H](O)COC[C@H](c1ccc(OC)c(F)c1)NC(=O)N3` [Example 49, (9S,13R)-1-Ethyl-9-(3-fluoro-4-methoxyphenyl)-13-hydroxy-1,6,9,10,13,14-hexahydro-12H-5,15-(azeno)pyrazolo[4,3-i][1,4,6]oxadiazacyclotetradecin-7(8H)-one]: 3.4 nM.
Next, `CCn1ncc2cc3nc(c21)C[C@H](O)COC[C@H](c1ccc(OC)c(F)c1)NC(=O)N3` [Example 50, (9S,13S)-1-Ethyl-9-(3-fluoro-4-methoxyphenyl)-13-hydroxy-1,6,9,10,13,14-hexahydro-12H-5,15-(azeno)pyrazolo[4,3-i][1,4,6]oxadiazacyclotetradecin-7(8H)-one]: 6.28 nM; `CCn1ncc2cc3nc(c21)C[C@@H](O)COC[C@H](c1cccc(F)c1)NC(=O)N3` [Example 51, (9S,13R)-1-Ethyl-9-(3-fluorophenyl)-13-hydroxy-1,6,9,10,13,14-hexahydro-12H-5,15-(azeno)pyrazolo[4,3-i][1,4,6]oxadiazacyclotetradecin-7(8H)-one]: 3.91 nM; `CCn1ncc2cc3nc(c21)C[C@H](O)COC[C@H](c1cccc(F)c1)NC(=O)N3` [Example 52, (9S,13S)-1-Ethyl-9-(3-fluorophenyl)-13-hydroxy-1,6,9,10,13,14-hexahydro-12H-5,15-(azeno)pyrazolo[4,3-i][1,4,6]oxadiazacyclotetradecin-7(8H)-one]: 14.5 nM.
In turn, `CCn1ncc2cc3nc(c21)C[C@@H](O)COC[C@H](c1ccc(Cl)c(F)c1)NC(=O)N3` [Example 53, (9S,13R)-1-Ethyl-9-(4-chloro-3-fluorophenyl)-13-hydroxy-1,6,9,10,13,14-hexahydro-12H-5,15-(azeno)pyrazolo[4,3-i][1,4,6]oxadiazacyclotetradecin-7(8H)-one] registered an IC50 of 3.91 nM. This IC50 lies about 3.7-fold lower than the previous one.
In the case of `CCn1ncc2cc3nc(c21)C[C@H](O)COC[C@H](c1ccc(Cl)c(F)c1)NC(=O)N3` [Example 54, (9S,13S)-1-Ethyl-9-(4-chloro-3-fluorophenyl)-13-hydroxy-1,6,9,10,13,14-hexahydro-12H-5,15-(azeno)pyrazolo[4,3-i][1,4,6]oxadiazacyclotetradecin-7(8H)-one], the IC50 came to 5.09 nM.
`CCn1ncc2cc3nc(c21)C[C@@H](O)COC[C@H](c1cccc(Cl)c1)NC(=O)N3` [Example 55, (9S,13R)-9-(3-chlorophenyl)-1-ethyl-13-hydroxy-1,6,9,10,13,14-hexahydro-12H-5,15-(azeno)pyrazolo[4,3-i][1,4,6]oxadiazacyclotetradecin-7(8H)-one] came in with an IC50 of 3.83 nM.
Next, `CCn1ncc2cc3nc(c21)C[C@H](O)COC[C@H](c1cccc(Cl)c1)NC(=O)N3` [Example 56, (9S,13S)-9-(3-chlorophenyl)-1-ethyl-13-hydroxy-1,6,9,10,13,14-hexahydro-12H-5,15-(azeno)pyrazolo[4,3-i][1,4,6]oxadiazacyclotetradecin-7(8H)-one]: 0.996 nM.
To `C=C1COC[C@H](c2ccccc2)NC(=O)Nc2cc3cnn(CC)c3c(n2)C1` [Example 57, (9 S)-1-ethyl-13-methylidene-9-phenyl-1,6,9,10,13,14-hexahydro-12H-5,15-(azeno)pyrazolo[4,3-i][1,4,6]oxadiazacyclotetradecin-7(8H)-one] belongs 5.17 nM; to `CCn1ncc2cc3nc(c21)CC(CO)COC[C@H](c1ccccc1)NC(=O)N3` (stereo partly shown) [Example 58, (9 S)-1-ethyl-13-(hydroxymethyl)-9-phenyl-1,6,9,10,13,14-hexahydro-12H-5,15-(azeno)pyrazolo[4,3-i][1,4,6]oxadiazacyclotetradecin-7(8H)-one], 5.09 nM.

(Values after patent US9988397B2, “ERK inhibitors” (Merck Sharp & Dohme Corp., priority 2014, dated 2018).)
